Inhibition data for one compound are collected here from ChEMBL document CHEMBL1158356, “Synthesis, anti-tuberculosis activity and 3D-QSAR study of amino acid conjugates of 4-(adamantan-1-yl) group containing quinolines” (Eur J Med Chem, 2009).

For assay [1], the system named is Mycobacterium tuberculosis. Nature of the assay: Antimycobacterial activity against isoniazid-resistant Mycobacterium tuberculosis H37Rv ATCC 27294 at 3.125 ug/ml. The format is functional.
Assay [2] concerns Mycobacterium tuberculosis. Nature of the assay: Antimycobacterial activity against isoniazid-resistant Mycobacterium tuberculosis H37Rv ATCC 27294 at 1 ug/ml. The format is functional.

SMILES strings stand for the structures.

Regarding `N=C(N)NCCC[C@H](NC(=O)c1cc(C23CC4CC(CC(C4)C2)C3)c2ccccc2n1)C(=O)NN`, testing at 3.125 µg/mL in assay [1] gave an inhibition of 99%. Further, the inhibition at 1 µg/mL in assay [2] came to 60%.
